# In the supplement of paper PMC10307832:
# Compound: CCOC1=CC=CC=C1N=NC2=C(NN(C2=O)C3=NC(=CS3)C4=CC=CC=C4)C [BAM7] + C[C@]1(O)C[C@@H](c2nc(-c3ccc4ccc(-c5ccccc5)nc4c3)c3c(N)nccn32)C1 [Linsitinib] (partner 1 µM)
# Assay: relative viability (nuclei count vs DMSO), 5 days (fraction); higher = more cells survive
# Conditions: first compound 50 µM
# Summary of the method: (§1)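 The day after seeding in 1536-well plates, lung cancer cell lines were treated by pin tool with a single drug, or with a fixed anchor-drug dose together with five library-drug doses (not always all listed) in √10 steps. After 5 days, a combined fix-and-stain solution (final 0.05% Triton X-100, 1% formaldehyde, 1 ug/ml Hoechst) was added. Nuclei counted on 4× images gave relative viability as treated counts over vehicle counts, reported as the median of duplicate plates.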
row,Cell Line,relative viability
1,NCI-H2023,0.67
2,HCC-15,0.853
3,PC-14,0.975
4,EKVX,0.831
5,LC-2-ad,0.783
6,NCI-H1563,1.24
7,NCI-H1944,1.07
8,NCI-H1975,0.898

# Compound: CCOC1=CC=CC=C1N=NC2=C(NN(C2=O)C3=NC(=CS3)C4=CC=CC=C4)C [BAM7] + C[C@@H](Oc1cc(-c2cnn(C3CCNCC3)c2)cnc1N)c1c(Cl)ccc(F)c1Cl [Crizotinib] (partner 1 µM)
# Assay: as above
# Conditions: first compound 0.5 µM
# Summary of the method: as §1
row,Cell Line,relative viability
1,LCLC-97TM1,0.305
2,NCI-H2009,1.12
3,A-427,0.927
4,NCI-H661,1.27
5,NCI-H1734,0.868
6,NCI-H460,1.16
7,NCI-H2347,0.738
8,SK-LU-1,0.785
9,201T,0.957
10,NCI-H1915,0.892
11,HCC-827,0.917
12,LXF-289,0.924
13,NCI-H23,0.587
14,NCI-H647,0.758
15,CAL-12T,0.737
16,NCI-H1651,0.826

row,Cell Line,relative viability
1,EPLC-272H,0.928
2,NCI-H2228,0.657
3,NCI-H1792,0.984
4,NCI-H1355,0.968
5,NCI-H3122,0.282
6,NCI-H1437,1
7,NCI-H1755,0.917
8,NCI-H2023,0.631
9,HCC-15,0.812
10,PC-14,1.07
11,EKVX,1.15
12,LC-2-ad,0.488
13,NCI-H1563,0.974
14,NCI-H1944,0.984
15,NCI-H1975,0.792

# Same assay, conditions: first compound 5 µM
row,Cell Line,relative viability
1,LCLC-97TM1,0.386
2,NCI-H2009,1.05
3,A-427,1
4,NCI-H661,1.08
5,NCI-H1734,0.634
6,NCI-H460,1.13
7,NCI-H2347,0.995
8,SK-LU-1,1.05
9,201T,1.02
10,NCI-H1915,0.918
11,HCC-827,0.873
12,LXF-289,0.876
13,NCI-H23,0.535
14,NCI-H647,1.25
15,CAL-12T,0.941
16,NCI-H1651,0.889

row,Cell Line,relative viability
1,EPLC-272H,0.986
2,NCI-H2228,0.426
3,NCI-H1792,1.06
4,NCI-H1355,1.05
5,NCI-H3122,0.378
6,NCI-H1437,1.16
7,NCI-H1755,0.935
8,NCI-H2023,0.59
9,HCC-15,0.811
10,PC-14,0.99
11,EKVX,0.963
12,LC-2-ad,0.518
13,NCI-H1563,0.942
14,NCI-H1944,1.15
15,NCI-H1975,0.773

# Same assay, conditions: first compound 15.81 µM
row,Cell Line,relative viability
1,LCLC-97TM1,0.245
2,NCI-H2009,0.973
3,A-427,0.814
4,NCI-H661,0.971
5,NCI-H1734,0.556
6,NCI-H460,0.743
7,NCI-H2347,0.674
8,SK-LU-1,0.903
9,201T,0.876
10,NCI-H1915,0.874
11,HCC-827,0.932
12,LXF-289,0.773
13,NCI-H23,0.424
14,NCI-H647,1.14
15,CAL-12T,0.695
16,NCI-H1651,0.871
17,EPLC-272H,1.02
18,NCI-H2228,0.349
19,NCI-H1792,1.06
20,NCI-H1355,0.937
21,NCI-H3122,0.33
22,NCI-H1437,0.53
23,NCI-H1755,0.829
24,NCI-H2023,0.454
25,HCC-15,0.785
26,PC-14,0.805
27,EKVX,0.54
28,LC-2-ad,0.46
29,NCI-H1563,0.889
30,NCI-H1944,0.839

# Same assay, conditions: first compound 50 µM
row,Cell Line,relative viability
1,LCLC-97TM1,0.332
2,NCI-H2009,0.987
3,A-427,0.817
4,NCI-H661,0.931
5,NCI-H1734,0.685
6,NCI-H460,0.96
7,NCI-H2347,0.745
8,SK-LU-1,0.866
9,201T,0.883
10,NCI-H1915,0.891
11,HCC-827,0.839
12,LXF-289,0.787
13,NCI-H23,0.515
14,NCI-H647,1.08
15,CAL-12T,0.652
16,NCI-H1651,0.886

row,Cell Line,relative viability
1,EPLC-272H,0.982
2,NCI-H2228,0.641
3,NCI-H1792,0.906
4,NCI-H1355,0.987
5,NCI-H3122,0.312
6,NCI-H1437,0.937
7,NCI-H1755,0.85
8,NCI-H2023,0.524
9,HCC-15,0.724
10,PC-14,0.859
11,EKVX,0.711
12,LC-2-ad,0.463
13,NCI-H1563,0.841
14,NCI-H1944,0.821
15,NCI-H1975,0.824
